Results reported in patent US20070224291A1, “Cancer treatment” (priority 2005, published 2007).

What was measured:
Sarcoma 45 = experiment: Antitumor activity, transplantable Sarcoma 45 (subcutaneous); assay type: in vivo; conditions: rats, reference medication, identical experimental conditions
Description: (§1) The antitumor activity of the medication of the present invention was studied in mice and rats with transplantable tumors of Sarcoma 37, 45, and 180, and Ehrlich ascites tumor.
(§2) Necrosis-free pieces of tumoral tissue (a peripheral part of a tumoral node) cut with scissors to form a homogeneous mass served as transplantants for solid models (Sarcomas 37, 45 and 180). A sterile physiological solution in the proportion of 1:3-1:4 was added to the tumor and the resulting suspension was introduced with a syringe subcutaneously to the animals. The transplantation was conducted in sterile box conditions using 12-14 days' tumor as a donor. The transplantation of sarcomas 37 and 180 was performed by means of subcutaneous introduction of 0.2-0.3 ml of the 20% tumoral suspension in a physiological solution to the axillary crease of each mouse. For the transplantation of Sarcoma 45, by 0.4-0.5 ml of suspension of tumoral cells was introduced subcutaneously (to the lateral area) of each rat. On the 4th-5th days after inoculation, when the transplanted tumor is usually pea-size, the animals were divided into test and control groups each having 8 mice and 10 rats. […] A day after the last injection of the medication, the animals were killed with ether, weighed, and the weight of tumors was measured separately. […]

Sarcoma 180 = experiment: Antitumor activity, transplantable Sarcoma 180 (subcutaneous); assay type: in vivo; conditions: mice, reference medication, identical experimental conditions
Description: as §1, §2

Sarcoma 37 = experiment: Antitumor activity, transplantable Sarcoma 37 (subcutaneous); assay type: in vivo; conditions: mice, reference medication, identical experimental conditions
Description: as §1, §2

[1] = in vivo
Description: (§3) In the study of antitimor properties of the medication of the present invention, the medication was used in doses of 20 and 40 ml/kg, and 10 and 30 ml/kg in the tests on mice and rats, respectively. The general toxic action which the medication had on the organism of the tested animals was estimated by their outer appearance and behavior during the experiment, as well as by the Growth Ratio (GR) expressed in percent.

Ehrlich ascites tumor = experiment: Antitumor activity, transplantable Ehrlich ascites tumor (intraperitoneal); assay type: in vivo; conditions: mice, reference medication, optimal therapeutic dose of 25 ml/kg
Description: as §1, §3
The numerical data obtained was processed statistically by Student-Fisher's method.

O=c1[nH]cc(F)c(=O)[nH]1 [5-fluorouracil]
inhibition of tumor growth (Sarcoma 45): 32%
inhibition of tumor growth (Sarcoma 180): 45%
therapeutic effect (inhibition of tumor growth) (Sarcoma 37): 70%
GR, span over all tests [1]: −7.3 to −11
antitumor effect (inhibition of ascit accumulation) (Ehrlich ascites tumor): 70%
